Laboratory results reported in patent publication US7285395B2, “Stearoyl-CoA desaturase 4 gene” (Wisconsin Alumni Research Foundation, priority 2004, dated 2007).

What was measured:
Format in all cases: in vivo, mouse
Details in all cases: heart, 129SV mice, chow diet containing 0.025% T0901317 fed for 2 days
mSCD1 = experiment: quantitative RT-PCR of mSCD1 mRNA in hearts of mice fed test diets
Description: (§1) The mice were fed the following diets. A, a high carbohydrate fat-free diet (CHO-FF). B, high carbohydrate fat-free diet supplemented with fish oil (CHO-FO) that was fed for 4 days. C, chow diet supplemented with the LXRα agonist T0901317 (LXR) and fed for 2 days. Total RNA from hearts of mice from each group (n=4) was subjected to quantitative RT-PCR using specific primers as described in the example below. The fold change was calculated after correction for the levels of cyclophilin used as a standard. Each value represents the mean±S.E. (n=4). *, p<0.01; **, p<0.001 versus wild type (Student's t test).
(§2) Animals and Diets—Male C57BL6J and ob/ob mice were obtained from the Jackson Laboratory (Bar Harbor, Me.). 129S6/SvEv mice were purchased from Taconic (Germantown, N.Y.). […]
(§3) Cloning and Expression of the Mouse SCD4 cDNA—A BLAST search of the mouse genomic data base identified a gene with exon sequences highly homologous to the amino acid sequence of mouse SCD1, 2, and 3 (GenBank™ accession numbers AH—002082, M26270, and AF272037, respectively). Using the genomic sequence, a candidate open reading frame of the putative SCD4 was cloned by synthesizing a forward and a reverse primer. […]

mSCD2 = experiment: quantitative RT-PCR of mSCD2 mRNA in hearts of mice fed test diets
Description: as §1, §2, §3

mSCD4 = experiment: quantitative RT-PCR of mSCD4 mRNA in hearts of mice fed test diets
Description: as §1, §2, §3

## O=S(=O)(c1ccccc1)N(CC(F)(F)F)c1ccc(C(O)(C(F)(F)F)C(F)(F)F)cc1 [T0901317]
mSCD1
  induction of mouse SCD1 mRNA: 18 fold
mSCD2
  induction of mouse SCD2 mRNA: 12 fold
mSCD4
  induction of mouse SCD4 mRNA: 60 fold
